Patent US8637508B2, “Heterocyclic derivatives and their use in the treatment of neurological disorders” (Novartis AG, priority 2011, dated 2014)
Structures can show the parent of a compound that is named as a salt. Where two headings read alike, the source gives them in different places.

How the values were obtained:
human BACE-2 = human BACE-2 (Homo sapiens (Human), UniProt Q9Y5Z0); experiment: Test 2: Inhibition of human BACE-2; assay type: biochemical
Description: Test 2: Inhibition of Human BACE-2

human BACE-1 = human BACE-1 (Homo sapiens (Human), UniProt P56817); experiment: Test 1: Inhibition of human BACE-1
[1] = mean IC50, recombinant BACE-2, acetate buffer pH 4.5, fluorescence-quenched peptide substrate, read-out: BACE-2 IC50
[2] = read-out: BACE-1 IC50, mean IC50, recombinant BACE-1, acetate buffer pH 4.5, fluorescence-quenched peptide substrate

Sequence of human BACE-2 (Q9Y5Z0 63-473): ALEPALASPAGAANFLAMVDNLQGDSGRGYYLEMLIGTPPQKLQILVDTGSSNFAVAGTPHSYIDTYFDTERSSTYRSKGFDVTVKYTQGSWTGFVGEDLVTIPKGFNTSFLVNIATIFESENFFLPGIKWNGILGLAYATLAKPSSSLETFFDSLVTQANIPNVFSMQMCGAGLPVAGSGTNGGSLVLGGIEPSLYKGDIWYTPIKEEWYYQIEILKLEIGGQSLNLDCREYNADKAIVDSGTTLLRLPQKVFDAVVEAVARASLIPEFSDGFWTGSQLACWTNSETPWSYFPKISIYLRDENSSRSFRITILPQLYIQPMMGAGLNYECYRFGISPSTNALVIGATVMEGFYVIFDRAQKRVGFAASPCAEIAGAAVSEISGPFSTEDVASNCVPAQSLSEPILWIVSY
Sequence of human BACE-1 (P56817 46-457): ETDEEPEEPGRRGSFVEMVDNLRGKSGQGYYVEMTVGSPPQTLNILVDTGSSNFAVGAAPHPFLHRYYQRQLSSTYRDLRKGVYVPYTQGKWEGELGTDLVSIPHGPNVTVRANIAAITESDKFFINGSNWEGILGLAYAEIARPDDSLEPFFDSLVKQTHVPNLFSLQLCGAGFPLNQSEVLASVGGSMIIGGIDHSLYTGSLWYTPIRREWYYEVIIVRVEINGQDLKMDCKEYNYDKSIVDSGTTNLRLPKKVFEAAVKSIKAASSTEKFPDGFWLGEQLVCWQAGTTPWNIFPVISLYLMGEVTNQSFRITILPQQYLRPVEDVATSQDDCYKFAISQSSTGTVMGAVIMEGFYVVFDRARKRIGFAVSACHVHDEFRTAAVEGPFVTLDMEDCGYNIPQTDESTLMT

Compound	IC50 (human BACE-2; [1]) [nM]	IC50 (human BACE-1; [2]) [nM]	IC50 (human BACE-2) [nM]	IC50 (human BACE-1) [nM]
Cc1cc(C#N)cnc1C(=O)Nc1ccc(F)c([C@]2(C(F)F)COCC(N)=N2)n1 [Example 38, 5-Cyano-3-methyl-pyridine-2-carboxylic acid [6-((R)-5-amino-3-difluoromethyl-3,6-dihydro-2H-[1,4]oxazin-3-yl)-5-fluoro-pyridin-2-yl]-amide]	160	33		
[2H]c1nc(C(=O)Nc2cc(C3(CF)COCC(N)=N3)ccn2)c(C([2H])([2H])[2H])c([2H])c1Cl (centres unmarked) [Example 13, 5-{2-[(5-Chloro-4,6-dideutero-3-trideuteromethyl-pyridine-2-carbonyl)-amino]-pyridin-4-yl}-5-fluoromethyl-5,6-dihydro-2H-[1,4]oxazin-3-yl-ammonium acetate]			1500	
COc1cnc(C(=O)Nc2ccc(F)c([C@]3(C)CO[C@@](C)(C(F)(F)F)C(N)=N3)n2)c(C)c1 [Example 25, 5-Methoxy-3-methyl-pyridine-2-carboxylic acid [6-((3R,6R)-5-amino-3,6-dimethyl-6-trifluoromethyl-3,6-dihydro-2H-[1,4]oxazin-3-yl)-5-fluoro-pyridin-2-yl]amide]	15	93		
C[C@@]1(c2cccc(NC(=O)c3ncc(C#N)cc3Cl)n2)CO[C@@](C)(C(F)(F)F)C(N)=N1 [Example 20, 3-Chloro-5-cyano-pyridine-2-carboxylic acid [6-((3R,6R)-5-amino-3,6-dimethyl-6-trifluoromethyl-3,6-dihydro-2H-[1,4]oxazin-3-yl)-pyridin-2-yl]-amide]	41	10		
Cc1cc(C#N)cnc1C(=O)Nc1ccc(F)c([C@@]2(C(F)F)COCC(N)=N2)n1 [Example 39, 5-Cyano-3-methyl-pyridine-2-carboxylic acid [6-((S)-5-amino-3-difluoromethyl-3,6-dihydro-2H-[1,4]oxazin-3-yl)-5-fluoro-pyridin-2-yl]-amide]	6500	1500		
N#Cc1cnc(C(=O)Nc2ccc(F)c([C@]3(C(F)F)COCC(N)=N3)n2)c(Cl)c1 [Example 40, 3-Chloro-5-cyano-pyridine-2-carboxylic acid [6-((R)-5-amino-3-difluoromethyl-3,6-dihydro-2H-[1,4]oxazin-3-yl)-5-fluoro-pyridin-2-yl]-amide]	170	42		
COCCn1ccc2nc(C(=O)Nc3ccc(F)c([C@]4(C)CO[C@@](C)(C(F)(F)F)C(N)=N4)n3)c(Cl)cc21 [Example 48, 6-Chloro-1-(2-methoxy-ethyl)-1H-pyrrolo[3,2-b]pyridine-5-carboxylic acid [6-((3R,6R)-5-amino-3,6-dimethyl-6-trifluoromethyl-3,6-dihydro-2H-[1,4]oxazin-3-yl)-5-fluoro-pyridin-2-yl]-amide]		7300	> 10000	
NC1=NC(CF)(c2ccnc(NC(=O)c3ccc(Cl)cn3)c2)COC1 (centres unmarked) [Example 14, 5-{2-[(5-Chloro-pyridine-2-carbonyl)-amino]-pyridin-4-yl}-5-fluoromethyl-5,6-dihydro-2H-[1,4]oxazin-3-yl-ammonium trifluoro-acetate]	4800	8100		
NC1=NC(CF)(c2cc(NC(=O)c3ccc(Br)cn3)cnc2Cl)COC1 (centres unmarked) [Example 18, 5-Bromo-pyridine-2-carboxylic acid [5-(5-amino-3-fluoromethyl-3,6-dihydro-2H-[1,4]oxazin-3-yl)-6-chloro-pyridin-3-yl]-amide hydrochloride]	130	140		
C[C@@]1(c2cccc(NC(=O)c3ncc(Br)cc3Cl)n2)CO[C@@](C)(C(F)(F)F)C(N)=N1 [Example 22, 5-Bromo-3-chloro-pyridine-2-carboxylic acid [6-((3R,6R)-5-amino-3,6-dimethyl-6-trifluoromethyl-3,6-dihydro-2H-[1,4]oxazin-3-yl)-pyridin-2-yl]-amide]	5	13		
CC1(c2cccc(NC(=O)c3ccc(Br)cn3)n2)COCC(N)=N1 (racemic) [Example 2, 5-Bromo-pyridine-2-carboxylic acid [6-(5-amino-3-methyl-3,6-dihydro-2H-[1,4]-oxazin-3-yl)-pyridin-2-yl]-amide]	360	790		
COCCn1ccc2nc(C(=O)Nc3ccc(F)c([C@]4(C)CO[C@@](C)(C(F)(F)F)C(N)=N4)n3)c(N)nc21 [Example 43, 3-Amino-5-(2-methoxy-ethyl)-5H-pyrrolo[2,3-b]pyrazine-2-carboxylic acid [6-((3R,6R)-5-amino-3,6-dimethyl-6-trifluoromethyl-3,6-dihydro-2H-[1,4]oxazin-3-yl)-5-fluoro-pyridin-2-yl]amide]		1200	> 10000	
NC(=S)c1ccc(C(=O)Nc2cccc(C3(CF)COCC(N)=N3)n2)nc1 (centres unmarked) [Example 7, 5-{6-[(5-Thiocarbamoyl-pyridine-2-carbonyl)-amino]-pyridin-2-yl}-5-fluoromethyl-5,6-dihydro-2H-[1,4]oxazin-3-yl-ammonium trifluoro-acetate]	8700	2100		
Cc1cc(C#N)cnc1C(=O)Nc1cc([C@]2(C)COC(CF)(CF)C(N)=N2)c(F)cn1 [Example 37, 5-Cyano-3-methyl-pyridine-2-carboxylic acid [4-((R)-5-amino-6,6-bis-fluoromethyl-3-methyl-3,6-dihydro-2H-[1,4]oxazin-3-yl)-5-fluoro-pyridin-2-yl]-amide]	430	380		
C[C@@]1(c2cccc(NC(=O)c3ccc(Br)cn3)n2)COCC(N)=N1 [Example 1, 5-Bromo-pyridine-2-carboxylic acid [6-((R)-5-amino-3-methyl-3,6-dihydro-2H-[1,4]-oxazin-3-yl)-pyridin-2-yl]-amide]	260	390		
C[C@@]1(c2cccc(NC(=O)c3ncc(OCC(F)(F)F)nc3N)n2)CO[C@@](C)(C(F)(F)F)C(N)=N1 [Example 23, 3-Amino-5-(2,2,2-trifluoro-ethoxy)-pyrazine-2-carboxylic acid [6-((3R,6R)-5-amino-3,6-dimethyl-6-trifluoromethyl-3,6-dihydro-2H-[1,4]oxazin-3-yl)-pyridin-2-yl]-amide]	> 10000	1200		
Cc1cc(OC(F)F)cnc1C(=O)Nc1ccc(F)c([C@]2(C)CO[C@@](C)(C(F)(F)F)C(N)=N2)n1 [Example 29, 5-Difluoromethoxy-3-methyl-pyridine-2-carboxylic acid [6-((3R,6R)-5-amino-3,6-dimethyl-6-trifluoromethyl-3,6-dihydro-2H-[1,4]oxazin-3-yl)-5-fluoro-pyridin-2-yl]amide]	24	26		
Cc1cc(C#N)cnc1C(=O)Nc1cccc([C@]2(C)CO[C@@](C)(C(F)(F)F)C(N)=N2)n1 [Example 8, 5-Cyano-3-methyl-pyridine-2-carboxylic acid [6-((3R,6R)-5-amino-3,6-dimethyl-6-trifluoro-methyl-3,6-dihydro-2H-[1,4]oxazin-3-yl)-pyridin-2-yl]-amide]	20	5		
Cc1cc(OCF)cnc1C(=O)Nc1ccc(F)c([C@]2(C)CO[C@@](C)(C(F)(F)F)C(N)=N2)n1 [Example 32, 5-Fluoromethoxy-3-methyl-pyridine-2-carboxylic acid [6-((3R,6R)-5-amino-3,6-dimethyl-6-trifluoromethyl-3,6-dihydro-2H-[1,4]oxazin-3-yl)-5-fluoro-pyridin-2-yl]amide]	7	45		
[2H]c1nc(C(=O)Nc2cccc(C3(CF)COCC(N)=N3)n2)c(C([2H])([2H])[2H])c([2H])c1Cl (centres unmarked) [Example 6, 5-{6-[(4,6-Dideutero-5-chloro-3-trideuteromethyl-pyridine-2-carbonyl)-amino]-pyridin-2-yl}-5-fluoromethyl-5,6-dihydro-2H-[1,4]oxazin-3-yl-ammonium trifluoro acetate]			240	550
C[C@@]1(c2nc(NC(=O)c3nc4ccn(CC(F)F)c4cc3Cl)ccc2F)CO[C@@](C)(C(F)(F)F)C(N)=N1 [Example 47, 6-Chloro-1-(2,2-difluoro-ethyl)-1H-pyrrolo[3,2-b]pyridine-5-carboxylic acid [6-((3R,6R)-5-amino-3,6-dimethyl-6-trifluoromethyl-3,6-dihydro-2H-[1,4]oxazin-3-yl)-5-fluoro-pyridin-2-yl]-amide]	5400			> 10000
Cc1cc(C(N)=S)cnc1C(=O)Nc1cc(C2(CF)COCC(N)=N2)ccn1 (centres unmarked) [Example 15, 5-Fluoromethyl-5-{2-[(3-methyl-5-thiocarbamoyl-pyridine-2-carbonyl)-amino]-pyridin-4-yl}-5,6-dihydro-2H-[1,4]oxazin-3-yl-ammonium trifluoro-acetate]			> 10000	> 10000
C[C@@]1(c2cccc(NC(=O)c3ccc(C#N)cn3)n2)CO[C@@](C)(C(F)(F)F)C(N)=N1 [Example 10, 5-Cyano-pyridine-2-carboxylic acid [6-((3R,6R)-5-amino-3,6-dimethyl-6-trifluoromethyl-3,6-dihydro-2H-[1,4]oxazin-3-yl)-pyridin-2-yl]-amide]		39		
C[C@@]1(c2nc(NC(=O)c3nn(C(F)F)cc3Cl)ccc2F)CO[C@@](C)(C(F)(F)F)C(N)=N1 [Example 46, 4-Chloro-1-difluoromethyl-1H-pyrazole-3-carboxylic acid [6-((3R,6R)-5-amino-3,6-dimethyl-6-trifluoromethyl-3,6-dihydro-2H-[1,4]oxazin-3-yl)-5-fluoro-pyridin-2-yl]-amide]	5	10		
C[C@]1(c2cccc(NC(=O)c3ccc(C#N)cn3)n2)CO[C@@](C)(C(F)(F)F)C(N)=N1 [Example 9, 5-Cyano-pyridine-2-carboxylic acid [6-((3S,6R)-5-amino-3,6-dimethyl-6-trifluoromethyl-3,6-dihydro-2H-[1,4]oxazin-3-yl)-pyridin-2-yl]-amide hydrochloride]		6200		
